Measurements published in ChEMBL document CHEMBL1201862, “PubChem BioAssay data set” (2004).
Several values for one entry are separate records, joined by “and”; a condition that tells them apart may be missing. Equal values may be shown once. Activity calls are given as the source filed them.

Columns and labels:
[1] = Shn3 3'UTR reporter inhibitors, dose response, cell-based, Clone20 osteoblasts, firefly luciferase, cherry-picked (AID 624132); assay type: functional;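 also: firefly luciferase luminescence from reporter carrying the Shn3 3'UTR in osteoblasts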
[2] = control 3'UTR Renilla luciferase suppression, dose response, counter-screen for Shn3 inhibitor project, cell-based, Clone20-Shn3RL, cherry-picked (AID 624133); assay type: functional
[3] = HepG2 cell cytotoxicity, dose response, cytotoxicity control for Shn3 inhibitor project, CellTiter-Glo, cherry-picked (AID 624134); assay type: functional, cell-based
[4] = inhibitors of control Renilla luciferase reporter, dose response, counter-screen for Shn3 3'UTR targeting project, Clone20-Shn3RL cells, dual-Glo, cherry-pick, set 2 (AID 720724); assay type: functional, cell-based; settings: Dual-Go Shn3RL
[5] = reduction of Shn3 3'UTR firefly luciferase signal, dose response, Schnurri-3 inhibitor project, cell-based, Clone20 osteoblasts, cherry-pick, set 2 (AID 720490); assay type: functional;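 also: actives lower the luminescence signal as inhibitors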
[6] = human group III sPLA2 inhibitors, dose response, biochemical, QFRET, IC50 (AID 743457);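 also: green fluorescence rise as the enzyme cleaves BODIPY PC-A2 in liposomes; potency for inhibition of the enzyme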
Streptococcus = experiment: Group A Streptococcus viability loss, dose response, counter-screen for streptokinase expression inhibitor project, luminescence, BacTiterGlo (AID 1915); assay type: functional, organism-based;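 also: potency for reduction of bacterial viability or growth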
[7] = test system: Streptococcus sp. 'group A'; experiment: growth inhibition of control SK(-) GAS strain, dose response, counter-screen for streptokinase expression inhibitor project, luminescence, kanamycin, BacTiterGlo, confirmation (AID 1900); assay type: functional, organism-based
Caspase-6 = Caspase-6 (Homo sapiens, UniProt P55212); experiment: human caspase-6 inhibitors, dose response, biochemical, VEID-R110 fluorescence, cherry-pick (AID 720632)
[8] = target: 72 kDa type IV collagenase (Homo sapiens, UniProt P08253); experiment: Dose Response validation of uHTS RPN11 inhibitor hits using a MMP-2 Fluorescence assay.; assay type: functional
Prothrombin = Prothrombin (Bos taurus, UniProt P00735); experiment: thrombin inhibition, dose response, biochemical, fluorescence polarization, uHTS hits (AID 602369); assay type: functional
[9] = target: 26S proteasome non-ATPase regulatory subunit 14 (Homo sapiens, UniProt O00487); experiment: inhibition of proteasome subunit RPN11 – biochemical, fluorescence polarization, uHTS hits, confirmation (AID 602368); assay type: functional
Kallikrein-7 = Kallikrein-7 (Homo sapiens, UniProt P49862); experiment: Fluorescence Intensity-based biochemical primary high throughput dose response assay to identify activators of kallikrein-7 (K7) zymogen.
[10] = inhibitors of firefly luciferase expression or activity, dose response, H4 neuroglioma cells, luminescence (AID 1990); assay type: functional, cell-based
[11] = HEK293T cytotoxicity, dose response, cytotoxicity control for miR-122 modulator project, cell-based, inhibitor set, cherry-pick, set 2 (AID 720697); assay type: functional
[12] = miR-122 activators in hepatoma reporter cells, dose response, cell-based, Huh7 psiCHECK-miR122, Renilla luciferase, cherry-picked (AID 651956); assay type: functional;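 also: huh7 hepatoma cells stably carrying a psiCHECK-2 miR-122 sensor plasmid; renilla luciferase signal reporting endogenous miR-122 activity after 48 h compound exposure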
[13] = Luminescence Cell-Based Dose Response HTS to Identify Inhibitors of 5'UTR Stem-Loop Driven Prion Protein mRNA Translation in H4 Neuroglioblastoma Cells. [Related pubchem assays: 1827 (Project Summary), 1813 (Primary HTS)]; assay type: functional
[14] = inhibitors of SNCA 5'UTR-driven reporter translation, confirmation, H4 neuroglioma cells, luminescence (AID 1988); assay type: functional, cell-based
[15] = target: T1, Sentrin-specific protease 1 (Homo sapiens, UniProt Q9P0U3); experiment: potency of human SENP1 inhibitors, dose response, biochemical, kinetic FRET (AID 651697); assay type: functional; settings: read-out: IC50_Mean
[16] = target: T1, Sentrin-specific protease 1; experiment: Dose response confirmation of small molecule inhibitors of the catalytic domain of the SUMO protease, SENP1 in a FRET assay.; assay type: functional; settings: read-out: IC50_Mean
Melanocortin receptor 4 = Melanocortin receptor 4 (Homo sapiens, UniProt P32245); assay type: functional, cell-based;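 also: Cell-based assay with luminescence read-out, confirmatory dose-response testing for agonist activity of biased ligands at MC4R; human U2OS cells with tagged receptor and beta-arrestin; potency of agonists that increase receptor coupling to beta-arrestin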
[17] = target: ADP-ribosylation factor GTPase-activating protein 1 (Rattus norvegicus, UniProt Q62848); experiment: Fluorescence polarization-based biochemical high throughput dose response screening assay to identify inhibitors of ADP-ribosylation factor GTPase activating protein 1 (ARFGAP1).; assay type: functional
[18] = target: 5-hydroxytryptamine receptor 2A (Mus musculus, UniProt P35363); assay type: functional, cell-based;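 also: CHO-K1 cells with tagged receptor and beta-arrestin; agonist potency measured as compound-induced activation of the receptor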
[19] = target: FAD-linked sulfhydryl oxidase ALR (Homo sapiens, UniProt P55789); experiment: inhibitors of human ALR sulfhydryl oxidase, dose response, biochemical, H2O2 detection, luminescence, cherry-pick (AID 493248)
Mu-type opioid receptor = Mu-type opioid receptor (Homo sapiens, UniProt P35372); assay type: functional, cell-based;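 also: U2OS cells with beta-arrestin recruitment to OPRM1 by beta-gal complementation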
[20] = target: T2, Beta-2 adrenergic receptor (Homo sapiens, UniProt P07550); experiment: Dose response for HTS for Beta-2AR agonists via FAP method from Powderset1.; assay type: functional
[21] = target: T2, Beta-2 adrenergic receptor; experiment: beta2AR agonists driving receptor internalization, dose response, cell-based, FAP fluorogen, flow cytometry, cherry pick 1 (AID 588763); assay type: functional
[22] = target: Oxysterols receptor LXR-beta (Homo sapiens, UniProt P55055); assay type: functional, cell-based;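 also: agonist activity at LXR measured by a cell-based luminescence readout across a dose range, run as a counterscreen for daf-12 agonists; HEK293 cells with Gal4-LXR fusion and GAL4-driven luciferase reporter; potency for activation of Gal4-LXR reporter so compounds are agonists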
[23] = Counterscreen for […] of the human trace amine associated receptor 1 (TAAR1): Fluorescence-based cell-based high throughput dose response assay to identify nonselective Ga16 agonists.; assay type: functional
[24] = Counterscreen for antagonists of the human trace amine associated receptor 1 (hTAAR1): Fluorescence-based cell-based high throughput dose response assay to identify nonselective Ga16 antagonists.; assay type: functional

T2 sequence (P07550 whole entry): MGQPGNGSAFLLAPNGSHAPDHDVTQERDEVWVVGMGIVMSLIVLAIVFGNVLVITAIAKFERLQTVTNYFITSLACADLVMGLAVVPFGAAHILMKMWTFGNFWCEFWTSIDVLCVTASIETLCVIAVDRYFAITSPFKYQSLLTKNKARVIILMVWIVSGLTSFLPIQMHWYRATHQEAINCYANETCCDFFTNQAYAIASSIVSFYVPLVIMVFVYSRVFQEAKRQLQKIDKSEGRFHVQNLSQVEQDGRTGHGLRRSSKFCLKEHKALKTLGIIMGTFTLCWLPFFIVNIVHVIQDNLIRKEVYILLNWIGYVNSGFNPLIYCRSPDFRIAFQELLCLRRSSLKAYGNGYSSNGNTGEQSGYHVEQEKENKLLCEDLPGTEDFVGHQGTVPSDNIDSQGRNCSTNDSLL
T1 sequence (Q9P0U3 whole entry, the tested form may be a part): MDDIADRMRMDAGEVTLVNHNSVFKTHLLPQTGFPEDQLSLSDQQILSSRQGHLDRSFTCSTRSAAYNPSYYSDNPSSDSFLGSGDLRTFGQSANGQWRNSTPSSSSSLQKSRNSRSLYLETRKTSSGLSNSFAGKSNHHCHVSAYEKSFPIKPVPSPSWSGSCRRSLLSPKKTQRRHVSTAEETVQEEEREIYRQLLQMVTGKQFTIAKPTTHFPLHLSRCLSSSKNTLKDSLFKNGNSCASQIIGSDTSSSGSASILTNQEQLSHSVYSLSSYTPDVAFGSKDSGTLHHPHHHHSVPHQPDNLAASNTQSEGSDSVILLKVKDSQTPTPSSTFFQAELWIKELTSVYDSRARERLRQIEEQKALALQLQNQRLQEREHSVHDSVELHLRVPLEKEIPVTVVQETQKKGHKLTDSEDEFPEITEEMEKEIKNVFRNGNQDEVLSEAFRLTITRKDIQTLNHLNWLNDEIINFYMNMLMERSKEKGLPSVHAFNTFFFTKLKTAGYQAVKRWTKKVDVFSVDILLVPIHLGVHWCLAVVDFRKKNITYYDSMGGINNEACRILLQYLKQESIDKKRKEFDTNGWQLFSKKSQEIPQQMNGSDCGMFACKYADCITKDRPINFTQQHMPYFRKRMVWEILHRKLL
Chain of ADP-ribosylation factor GTPase-activating protein 1 (Q62848 whole entry): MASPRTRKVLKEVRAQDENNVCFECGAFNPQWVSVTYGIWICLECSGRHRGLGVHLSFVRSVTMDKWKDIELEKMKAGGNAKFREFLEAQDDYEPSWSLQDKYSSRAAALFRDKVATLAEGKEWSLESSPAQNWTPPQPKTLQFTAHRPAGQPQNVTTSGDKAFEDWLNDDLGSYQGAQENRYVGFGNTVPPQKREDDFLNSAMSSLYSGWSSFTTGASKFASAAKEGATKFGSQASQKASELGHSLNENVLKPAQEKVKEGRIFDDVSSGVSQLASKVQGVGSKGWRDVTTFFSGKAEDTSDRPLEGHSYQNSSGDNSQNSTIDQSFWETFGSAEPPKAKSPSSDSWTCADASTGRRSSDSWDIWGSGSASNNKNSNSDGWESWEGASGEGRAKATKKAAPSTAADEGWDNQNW
Chain of Kallikrein-7 (P49862 whole entry): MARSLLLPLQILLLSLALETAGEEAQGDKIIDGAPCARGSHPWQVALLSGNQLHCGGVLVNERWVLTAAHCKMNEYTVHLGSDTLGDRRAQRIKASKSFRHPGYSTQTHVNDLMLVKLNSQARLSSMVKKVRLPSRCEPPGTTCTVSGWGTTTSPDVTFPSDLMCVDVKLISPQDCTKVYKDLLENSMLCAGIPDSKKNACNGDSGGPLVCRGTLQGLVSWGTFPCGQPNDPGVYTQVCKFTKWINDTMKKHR
Chain of 26S proteasome non-ATPase regulatory subunit 14 (O00487 whole entry): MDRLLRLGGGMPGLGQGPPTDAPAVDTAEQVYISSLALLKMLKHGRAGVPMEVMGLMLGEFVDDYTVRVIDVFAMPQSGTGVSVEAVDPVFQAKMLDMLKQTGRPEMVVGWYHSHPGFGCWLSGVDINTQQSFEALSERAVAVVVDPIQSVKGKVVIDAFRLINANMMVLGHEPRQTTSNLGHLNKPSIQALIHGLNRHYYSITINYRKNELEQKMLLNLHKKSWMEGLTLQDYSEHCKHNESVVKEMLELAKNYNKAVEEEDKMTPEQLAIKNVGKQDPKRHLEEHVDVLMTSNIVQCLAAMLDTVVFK
Chain of 72 kDa type IV collagenase (P08253 whole entry): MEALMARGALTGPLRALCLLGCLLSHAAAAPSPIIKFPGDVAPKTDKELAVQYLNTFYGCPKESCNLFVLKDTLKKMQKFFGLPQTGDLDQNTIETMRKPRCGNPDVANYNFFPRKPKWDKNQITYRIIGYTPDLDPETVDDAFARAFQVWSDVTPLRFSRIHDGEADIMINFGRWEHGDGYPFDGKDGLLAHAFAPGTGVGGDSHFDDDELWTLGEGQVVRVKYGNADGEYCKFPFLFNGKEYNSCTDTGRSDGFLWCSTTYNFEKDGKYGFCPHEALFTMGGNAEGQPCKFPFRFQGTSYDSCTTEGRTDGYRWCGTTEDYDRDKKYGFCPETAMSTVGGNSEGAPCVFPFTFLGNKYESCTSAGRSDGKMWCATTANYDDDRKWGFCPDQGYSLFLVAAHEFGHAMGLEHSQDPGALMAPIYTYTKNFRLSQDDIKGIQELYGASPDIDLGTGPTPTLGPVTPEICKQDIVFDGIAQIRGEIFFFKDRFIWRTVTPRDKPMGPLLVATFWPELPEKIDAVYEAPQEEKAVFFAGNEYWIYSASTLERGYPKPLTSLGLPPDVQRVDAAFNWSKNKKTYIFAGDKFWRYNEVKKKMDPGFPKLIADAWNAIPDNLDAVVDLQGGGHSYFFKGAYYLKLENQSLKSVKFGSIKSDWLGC
Chain of Mu-type opioid receptor (P35372 whole entry): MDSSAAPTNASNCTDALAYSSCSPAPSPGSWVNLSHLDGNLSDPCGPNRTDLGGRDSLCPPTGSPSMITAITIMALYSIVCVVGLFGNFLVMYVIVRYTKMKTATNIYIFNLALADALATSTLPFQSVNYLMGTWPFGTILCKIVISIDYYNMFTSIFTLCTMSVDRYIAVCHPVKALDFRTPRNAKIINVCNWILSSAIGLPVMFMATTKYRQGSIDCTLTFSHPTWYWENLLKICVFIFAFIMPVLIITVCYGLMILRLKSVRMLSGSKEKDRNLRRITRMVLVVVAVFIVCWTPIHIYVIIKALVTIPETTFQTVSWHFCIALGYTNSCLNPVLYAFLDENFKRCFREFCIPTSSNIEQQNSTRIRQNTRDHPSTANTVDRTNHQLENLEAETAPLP
Chain of FAD-linked sulfhydryl oxidase ALR (P55789 whole entry): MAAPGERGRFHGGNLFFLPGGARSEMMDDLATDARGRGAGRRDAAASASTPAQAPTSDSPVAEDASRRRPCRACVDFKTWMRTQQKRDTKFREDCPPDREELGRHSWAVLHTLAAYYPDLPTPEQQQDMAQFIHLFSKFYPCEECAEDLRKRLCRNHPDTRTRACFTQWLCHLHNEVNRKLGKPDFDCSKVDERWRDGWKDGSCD
Chain of Caspase-6 (P55212 24-179 limits assumed): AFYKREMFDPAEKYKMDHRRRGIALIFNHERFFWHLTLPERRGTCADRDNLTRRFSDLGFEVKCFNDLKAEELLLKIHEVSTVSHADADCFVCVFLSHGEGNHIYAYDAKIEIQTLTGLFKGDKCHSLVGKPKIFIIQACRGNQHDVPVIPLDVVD
Chain of Caspase-6 (P55212 194-293 limits assumed): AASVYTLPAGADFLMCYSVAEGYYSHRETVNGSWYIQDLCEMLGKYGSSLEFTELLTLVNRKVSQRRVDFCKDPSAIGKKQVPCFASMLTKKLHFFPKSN
Chain of Oxysterols receptor LXR-beta (P55055 whole entry, the tested form may be a part): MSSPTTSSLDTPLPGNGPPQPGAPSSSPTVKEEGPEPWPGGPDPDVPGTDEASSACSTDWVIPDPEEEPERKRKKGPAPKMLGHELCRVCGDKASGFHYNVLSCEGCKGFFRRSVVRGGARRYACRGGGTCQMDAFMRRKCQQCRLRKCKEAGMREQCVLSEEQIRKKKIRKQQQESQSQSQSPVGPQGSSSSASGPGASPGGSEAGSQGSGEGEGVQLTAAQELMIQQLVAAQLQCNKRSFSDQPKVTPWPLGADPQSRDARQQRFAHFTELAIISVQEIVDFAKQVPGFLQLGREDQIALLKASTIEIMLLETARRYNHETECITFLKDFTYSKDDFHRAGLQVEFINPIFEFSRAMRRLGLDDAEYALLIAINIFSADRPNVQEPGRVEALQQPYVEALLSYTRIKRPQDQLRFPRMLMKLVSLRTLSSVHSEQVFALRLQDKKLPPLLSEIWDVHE
Chain of Melanocortin receptor 4 (P32245 whole entry): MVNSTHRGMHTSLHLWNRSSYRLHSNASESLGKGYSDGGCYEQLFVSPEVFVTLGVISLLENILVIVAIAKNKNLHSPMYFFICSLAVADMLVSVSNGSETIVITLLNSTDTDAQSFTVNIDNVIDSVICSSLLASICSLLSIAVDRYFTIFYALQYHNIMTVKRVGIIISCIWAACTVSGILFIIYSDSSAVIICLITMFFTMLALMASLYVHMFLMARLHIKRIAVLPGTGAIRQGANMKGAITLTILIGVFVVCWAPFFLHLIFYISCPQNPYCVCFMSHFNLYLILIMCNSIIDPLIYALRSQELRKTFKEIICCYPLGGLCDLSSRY
Chain of 5-hydroxytryptamine receptor 2A (P35363 whole entry): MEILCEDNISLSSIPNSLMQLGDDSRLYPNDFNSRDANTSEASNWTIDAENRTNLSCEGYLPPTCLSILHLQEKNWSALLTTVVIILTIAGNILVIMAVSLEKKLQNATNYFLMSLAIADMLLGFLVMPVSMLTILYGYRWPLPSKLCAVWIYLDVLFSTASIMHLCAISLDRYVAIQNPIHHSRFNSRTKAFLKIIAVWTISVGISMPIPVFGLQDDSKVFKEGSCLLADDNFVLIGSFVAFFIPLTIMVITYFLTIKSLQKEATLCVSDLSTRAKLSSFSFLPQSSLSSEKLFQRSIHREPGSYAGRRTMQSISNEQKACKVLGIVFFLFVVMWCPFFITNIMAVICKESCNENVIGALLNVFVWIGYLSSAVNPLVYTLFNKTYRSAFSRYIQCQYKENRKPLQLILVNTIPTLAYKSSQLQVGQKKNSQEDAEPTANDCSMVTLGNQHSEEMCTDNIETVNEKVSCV

With `Cc1ccc2nc(NC(=O)C3CCN(S(=O)(=O)c4ccc5c(c4)oc(=O)n5C)CC3)sc2c1` the AC50 [1] was 3.35 µM (active), the AC50 [2] was 11.1 µM (active) and the AC50 [3] was 54.7 µM (active). The AC50 [4] was 29.1 µM (active) and the AC50 [5] was 7.23 µM (active).
For `O=C(NNC(=S)NC(=O)c1cccs1)c1ccc(NC(=O)c2ccccc2)cc1`, the IC50 [6] was 51.9 µM (inactive), the EC50 (Streptococcus) was 6.3 µM (active) and the EC50 [7] was 479 nM (active).
With `CN(CC(=O)Nc1ccc(F)c(F)c1F)C(=O)CCc1nc(O)c2c3c(sc2n1)CCCC3` the AC50 (Caspase-6) was 18.6 µM (active), the IC50 [8] was > 100 µM (inactive) and the IC50 (Prothrombin) was 61.3 µM (active). The IC50 [9] was 46.5 µM (active).
In the case of `COc1cccc(CNC(=O)c2ccc3c(c2)N(C)CCS3)c1OC`, the EC50 (Kallikrein-7) is reported as > 69.5 µM (inactive).
With `Cc1oc(-c2ccc(Cl)cc2)nc1CN1CCCC(C(=O)NCc2ccco2)C1` (stereo not given) the EC50 [10] was > 120 µM (not active), the AC50 [11] was 1.3 µM (active) and the AC50 [12] was 6.37 µM (active). For the same molecule, the EC50 [13] was > 120 µM (not active) and the EC50 [14] was > 120 µM (not active).
With `CCOc1ccc(Cn2c3ccc(OC)cc3c3nc4ccccc4nc32)cc1OC` the IC50 [15] was 12.8 µM (active), the IC50 [16] was 6.92 µM (active) and the EC50 (Melanocortin receptor 4) was > 89.2 µM (inactive).
In the case of `C=CCOc1ccc(/C=C/C(=O)Nc2ccc(C(=O)NC)cc2)cc1`, the IC50 [17] is reported as 52.2 µM (inactive).
In the case of `COc1ccccc1C(=O)NCCN1CCN(c2ccccc2)CC1`, the EC50 [18] is reported as 662 nM (active), the AC50 [19] is reported as 3.86 µM (active) and the EC50 (Mu-type opioid receptor) is reported as 92.5 µM (inactive).
For `CC(=O)Nc1ccc(S(=O)(=O)N2CCCCC2c2cccnc2)cc1` (stereo not given), the EC50 [20] was 23.3 nM (active) and the EC50 [21] was 262 nM (active) and 107 nM (active).
With `Nc1nn(-c2cccc(F)n2)cc1-c1ccccc1` the EC50 [22] was > 67.5 µM (inactive).
In the case of `CCCOC(=O)c1c(-c2ccc(OC)cc2)oc2ccc(-c3ccc(OC)nc3)cc12`, the EC50 [23] is reported as > 29.9 µM (inactive) and the IC50 [24] is reported as > 29.9 µM (inactive).
